Key:
[1] = biological target: T1, Recombinant BTK^C481S kinase (Homo sapiens, UniProt Q06187, C481S); test: BTK C481S binding affinity (LanthaScreen TR-FRET); details: Kinase Tracer 236, 5 h incubation
T1 construct: purchased SignalChem
Procedure, shortened: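 BTK C481S tracer-displacement TR-FRET: 5 nM His-tagged kinase, 2 nM Eu anti-His antibody and 30 nM Kinase Tracer 236 incubated with titrated inhibitor for 5 h in Kinase Buffer A. Read at 340 nm excitation, 615/665 nm emission; IC50 from variable-slope log[inhibitor]–response fit.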

[2] = tested on: OCI-Ly10 human DLBCL cells; test: OCI-Ly10 anti-proliferative activity (Resazurin); type: cell-based; details: Homo sapiens, OCI-Ly10, 72 h, OCI-Ly10 cells, 72 h compound treatment, Resazurin; read-out: Proliferation Assay OCI-Ly10-20% FBS
Procedure, shortened: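 A separate untreated plate gave the Day 0 reading, measured by Resazurin fluorescence at 590 nm after 5 h. The average Day 0 value was subtracted from each treated well, and results were expressed as percent of DMSO control. IC50 values came from a log[Inhibitor] vs response Variable Slope fit in Graphpad prism.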

[3] = biological target: T2, Recombinant BTK^WT kinase (Homo sapiens, UniProt Q06187); test: BTK WT binding affinity (LanthaScreen TR-FRET); details: Kinase Tracer 236, 5 h incubation
T2 construct: purchased Invitrogen
T2 sequence (Q06187 whole entry): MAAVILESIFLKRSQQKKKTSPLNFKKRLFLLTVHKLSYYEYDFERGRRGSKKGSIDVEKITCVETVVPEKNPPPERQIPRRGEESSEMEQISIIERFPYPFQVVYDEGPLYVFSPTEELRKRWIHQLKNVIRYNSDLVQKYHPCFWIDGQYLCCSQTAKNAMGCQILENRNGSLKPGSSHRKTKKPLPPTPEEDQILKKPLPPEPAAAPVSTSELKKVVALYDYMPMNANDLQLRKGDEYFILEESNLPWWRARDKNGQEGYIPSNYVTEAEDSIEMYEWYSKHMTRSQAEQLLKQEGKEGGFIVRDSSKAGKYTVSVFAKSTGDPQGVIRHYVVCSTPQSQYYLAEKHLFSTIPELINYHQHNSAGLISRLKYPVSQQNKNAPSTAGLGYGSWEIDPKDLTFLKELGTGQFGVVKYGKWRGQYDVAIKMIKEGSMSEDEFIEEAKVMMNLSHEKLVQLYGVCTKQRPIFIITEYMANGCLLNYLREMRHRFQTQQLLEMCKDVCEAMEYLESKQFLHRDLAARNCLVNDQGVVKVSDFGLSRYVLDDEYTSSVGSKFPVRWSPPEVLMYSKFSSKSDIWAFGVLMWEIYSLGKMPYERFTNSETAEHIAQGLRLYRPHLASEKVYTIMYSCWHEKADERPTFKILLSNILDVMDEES
Procedure, shortened: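 IC50 obtained by variable-slope fit of TR-FRET signal (ex 340 nm; em 615 and 665 nm) versus inhibitor concentration. Reaction held for 5 h in LanthaScreen Kinase Buffer A with 2.5 nM His-tagged BTK^WT, 15 nM Kinase Tracer 236 and 2 nM Eu anti-His antibody.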

Recombinant EGFR = biological target: T3, Recombinant EGFR (Homo sapiens, UniProt P00533); test: EGFR binding affinity (LanthaScreen TR-FRET); details: Kinase Tracer 199, 5 h incubation
T3 construct: purchased Invitrogen
T3 sequence (P00533 25-1210): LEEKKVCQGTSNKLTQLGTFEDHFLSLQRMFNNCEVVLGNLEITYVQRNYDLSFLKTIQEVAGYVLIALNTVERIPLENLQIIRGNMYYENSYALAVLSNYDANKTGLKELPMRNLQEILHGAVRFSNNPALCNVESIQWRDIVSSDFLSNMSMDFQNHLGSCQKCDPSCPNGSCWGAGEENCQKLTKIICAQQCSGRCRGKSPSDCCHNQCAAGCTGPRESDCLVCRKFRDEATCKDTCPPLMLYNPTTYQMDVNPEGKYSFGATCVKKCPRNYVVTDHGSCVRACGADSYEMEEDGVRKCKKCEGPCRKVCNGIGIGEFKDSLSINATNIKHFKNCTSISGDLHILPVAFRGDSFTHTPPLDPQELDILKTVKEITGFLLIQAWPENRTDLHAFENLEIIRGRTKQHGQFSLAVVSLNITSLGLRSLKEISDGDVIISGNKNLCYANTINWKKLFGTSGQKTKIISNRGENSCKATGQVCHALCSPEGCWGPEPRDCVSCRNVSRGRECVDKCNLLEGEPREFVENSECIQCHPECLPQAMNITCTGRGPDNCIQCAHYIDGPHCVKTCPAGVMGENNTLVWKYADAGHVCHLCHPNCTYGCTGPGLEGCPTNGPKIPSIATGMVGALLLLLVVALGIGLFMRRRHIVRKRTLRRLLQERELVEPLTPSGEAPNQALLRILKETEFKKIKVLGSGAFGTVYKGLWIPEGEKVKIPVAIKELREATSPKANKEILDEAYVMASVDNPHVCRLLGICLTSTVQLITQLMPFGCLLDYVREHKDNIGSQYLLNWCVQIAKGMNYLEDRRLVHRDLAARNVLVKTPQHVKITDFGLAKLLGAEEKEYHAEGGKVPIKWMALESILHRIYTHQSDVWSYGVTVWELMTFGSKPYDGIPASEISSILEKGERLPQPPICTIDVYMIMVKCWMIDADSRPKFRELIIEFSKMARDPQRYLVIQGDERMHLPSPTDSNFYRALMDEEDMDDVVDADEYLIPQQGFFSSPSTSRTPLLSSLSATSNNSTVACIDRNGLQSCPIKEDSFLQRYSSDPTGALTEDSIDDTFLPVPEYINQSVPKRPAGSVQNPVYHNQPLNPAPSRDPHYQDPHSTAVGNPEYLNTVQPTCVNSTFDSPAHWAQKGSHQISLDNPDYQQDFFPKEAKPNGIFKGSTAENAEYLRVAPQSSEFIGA
Procedure, shortened: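 Compounds were titrated against recombinant EGFR and binding was followed by LanthaScreen time-resolved FRET.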

T1 sequence (Q06187 whole entry C481S): as the sequence (Q06187 whole entry) above, with C481S counted along it

Row | IC50 [1] [nM] | IC50 [2] [nM] | IC50 [3] [nM] | IC50 (Recombinant EGFR) [nM] | Structure (SMILES)
1 | < 10 | 100 to 1000 | 10 to 100 | > 10000 | COc1ccccc1C(=O)NCc1cc(F)c(-c2nn(C3CCOCC3)c(N)c2C(N)=O)cc1F [Example 148, 5-amino-3-[2,5-difluoro-4-[[(2-methoxybenzoyl)amino]methyl]phenyl]-1-tetrahydropyran-4-yl-pyrazole-4-carboxamide]
2 | 10 to 100 | 100 to 1000 | 100 to 1000 | > 10000 | COCOCCn1nc(-c2ccc(CNC(=O)c3ccccc3OC)cc2)c(C(N)=O)c1N [Example 7, 5-amino-3-[4-[[(2-methoxybenzoyl)amino]methyl]phenyl]-1-[2-(methoxymethoxy)ethyl]pyrazole-4-carboxamide]
3 | < 10 | 10 to 100 | < 10 | 1000 to 10000 | COc1ccc(F)cc1C(=O)NCc1ccc(-c2nn(CC(C)C(F)(F)F)c(N)c2C(N)=O)cc1 (stereo not shown) [Example 176, 5-amino-3-[4-[[(5-fluoro-2-methoxy-benzoyl)amino]methyl]phenyl]-1-(3,3,3-trifluoro-2-methyl-propyl)pyrazole-4-carboxamide]
4 | < 10 | 100 to 1000 | 10 to 100 | > 10000 | COc1ccccc1C(=O)NCc1ccc(-c2nn(C3CCCC3)c(N)c2C(N)=O)c(C)c1 [Example 101, 5-amino-1-cyclopentyl-3-[4-[[(2-methoxybenzoyl)amino]methyl]-2-methyl-phenyl]pyrazole-4-carboxamide]
5 | 10 to 100 | 100 to 1000 | 10 to 100 | 1000 to 10000 | COc1ccc(F)cc1C(=O)NCc1ccc(-c2nn(C(C(C)(C)C)C(F)(F)F)c(N)c2C(N)=O)cc1 (stereo not shown) [Example 194, 5-amino-1-[2,2-dimethyl-1-(trifluoromethyl)propyl]-3-[4-[[(5-fluoro-2-methoxy-benzoyl)amino]methyl]phenyl]pyrazole-4-carboxamide]
6 | < 10 | 100 to 1000 | < 10 | 100 to 1000 | COc1ccccc1C(=O)NCc1ccc(-c2nn(C3CCOC(C(F)(F)F)C3)c(N)c2C(N)=O)cc1 (stereo not shown) [Example 111, 5-amino-3-[4-[[(2-methoxybenzoyl)amino]methyl]phenyl]-1-[2-(trifluoromethyl)tetrahydropyran-4-yl]pyrazole-4-carboxamide]
7 | < 10 | 10 to 100 | < 10 | 1000 to 10000 | COc1ccc(F)cc1C(=O)NCc1cc(F)c(-c2nn(C3CCCC3)c(N)c2C(N)=O)cc1F [Example 137, 5-amino-1-cyclopentyl-3-[2,5-difluoro-4-[[(5-fluoro-2-methoxy-benzoyl)amino]methyl]phenyl]pyrazole-4-carboxamide]
8 | 10 to 100 | 1000 to 10000 | 10 to 100 | 1000 to 10000 | COc1ccccc1C(=O)NCc1ccc(-c2nn(C3CCOCC3(C)C)c(N)c2C(N)=O)cc1 (stereo not shown) [Example 89, 5-amino-1-(3,3-dimethyltetrahydropyran-4-yl)-3-[4-[[(2-methoxybenzoyl)amino]methyl]phenyl]pyrazole-4-carboxamide]
9 | < 10 | 10 to 100 | < 10 | > 10000 | COc1ccc(F)cc1C(=O)NCc1ccc(-c2nn(C3CCCC3)c(N)c2C(N)=O)c(F)c1F [Example 154, 5-amino-1-cyclopentyl-3-[2,3-difluoro-4-[[(5-fluoro-2-methoxy-benzoyl)amino]methyl]phenyl]pyrazole-4-carboxamide]
10 | < 10 | 100 to 1000 | < 10 | 1000 to 10000 | COc1ccccc1C(=O)NCc1ccc(-c2nn(C3CC3)c(N)c2C(N)=O)cc1 [Example 29, 5-Amino-1-cyclopropyl-3-[4-[[(2-methoxybenzoyl)amino]methyl]phenyl]pyrazole-4-carboxamide]
11 | < 10 | 10 to 100 | < 10 | 100 to 1000 | COc1ccccc1C(=O)NCc1ccc(-c2nn(-c3cccc(C)c3)c(N)c2C(N)=O)cc1 [Example 50, 5-amino-3-[4-[[(2-methoxybenzoyl)amino]methyl]phenyl]-1-(m-tolyl)pyrazole-4-carboxamide]
12 | 100 to 1000 | 1000 to 10000 | 100 to 1000 | > 10000 | COc1ccccc1C(=O)NCc1ccc(-c2nn(C3CCCC(=O)C3)c(N)c2C(N)=O)cc1 (stereo not shown) [Example 12, 5-amino-3-[4-[[(2-methoxybenzoyl)amino]methyl]phenyl]-1-(3-oxocyclohexyl)pyrazole-4-carboxamide]
13 | < 10 | 100 to 1000 | < 10 | > 10000 | COc1ccc(F)cc1C(=O)NCc1ccc(-c2nn(C3CCOCC3)c(N)c2C(N)=O)c(F)c1 [Example 106, 5-amino-3-[2-fluoro-4-[[(5-fluoro-2-methoxy-benzoyl)amino]methyl]phenyl]-1-tetrahydropyran-4-yl-pyrazole-4-carboxamide]
14 | < 10 | 10 to 100 | < 10 | 1000 to 10000 | COc1ccc(F)cc1C(=O)NCc1ccc(-c2nn(C(C)C(F)(F)F)c(N)c2C(N)=O)cc1F (stereo not shown) [Example 177, 5-amino-3-[3-fluoro-4-[[(5-fluoro-2-methoxy-benzoyl)amino]methyl]phenyl]-1-(2,2,2-trifluoro-1-methyl-ethyl)pyrazole-4-carboxamide]
15 | < 10 | 100 to 1000 | < 10 | 1000 to 10000 | COc1ccccc1C(=O)NCc1ccc(-c2nn(C3CCC(=O)C3)c(N)c2C(N)=O)cc1 (stereo not shown) [Example 13, 5-Amino-3-[4-[[(2-methoxybenzoyl)amino]methyl]phenyl]-1-(3-oxocyclopentyl)pyrazole-4-carboxamide]
16 | < 10 | < 10 | < 10 | 100 to 1000 | COc1ccccc1C(=O)NCc1ccc(-c2nn(C3CCCC3)c(N)c2C(N)=O)cc1 [Example 1, 5-amino-1-cyclopentyl-3-[4-[[(2-methoxybenzoyl)amino]methyl]phenyl]pyrazole-4-carboxamide]
17 | < 10 | 10 to 100 | < 10 | 1000 to 10000 | COc1ccc(F)cc1C(=O)NCc1ccc(-c2nn(C3CCOCC3)c(N)c2C(N)=O)cc1 [Example 115, 5-amino-3-[4-[[(5-fluoro-2-methoxy-benzoyl)amino]methyl]phenyl]-1-tetrahydropyran-4-yl-pyrazole-4-carboxamide]
18 | < 10 | 100 to 1000 | 10 to 100 | > 10000 | COc1ccc(F)cc1C(=O)NCc1c(F)cc(-c2nn(C3CCCC3)c(N)c2C(N)=O)cc1F [Example 139, 5-amino-1-cyclopentyl-3-[3,5-difluoro-4-[[(5-fluoro-2-methoxy-benzoyl)amino]methyl]phenyl]pyrazole-4-carboxamide]
19 | < 10 | 10 to 100 | < 10 | 100 to 1000 | COc1ccccc1C(=O)NCc1ccc(-c2nn(C3CCCC(C(=O)N(C)C)C3)c(N)c2C(N)=O)cc1 (single isomer, unassigned) [Example 70, 5-amino-1-[3-(dimethylcarbamoyl)cyclohexyl]-3-[4-[[(2-methoxybenzoyl)amino]methyl]phenyl]pyrazole-4-carboxamide]

From US11826351B2, “Compounds useful as kinase inhibitors” (Loxo Oncology, Inc., priority 2015, dated 2023)
